Article PMC6291243 (The Journal of organic chemistry, 2018)

Key:
[1] = target: T1, LipM (Streptomyces sp. SANK 60405, UniProt D4QF26); test: HPLC of UDP-sugar, coupled with phosphorylase; format: biochemical; settings: generated in situ from 13b; UTP
T1 sequence (D4QF26 1-233): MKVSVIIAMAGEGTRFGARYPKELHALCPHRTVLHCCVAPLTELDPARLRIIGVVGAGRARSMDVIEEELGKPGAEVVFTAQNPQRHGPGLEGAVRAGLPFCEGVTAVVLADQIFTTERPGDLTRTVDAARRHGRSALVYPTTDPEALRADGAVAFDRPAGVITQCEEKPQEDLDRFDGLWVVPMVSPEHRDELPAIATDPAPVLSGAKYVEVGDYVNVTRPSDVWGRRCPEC

[2] = target: Mur20 (Streptomyces sp. NRRL 30471, UniProt F2WUD2); test: HPLC, specific activity; format: biochemical; settings: amine donor; 1 mM 11a, 50 mM potassium phosphate pH 7.5, 30 °C

Compound: NC[C@H]1O[C@H](OP(=O)(O)O)C[C@@H]1O [5-amino-2,5-dideoxy-α-D-ribose-1-phosphate]
- HPLC of UDP-sugar, coupled with phosphorylase [1]: either enzyme was substituted with the respective orthologous proteins LipP or LipM

Compound: N[C@@H](Cc1ccc(O)cc1)C(=O)O [L-Tyr]
- HPLC, specific activity [2]: the specific activity for Mur20 was highest using L-Tyr as an amine donor
